Here are results for 11 compounds from US20250177363A1, “SUBSTITUTED IMIDAZOPYRIDINYL COMPOUNDS USEFUL AS INHIBITORS OF TLR9” (Bristol-Myers Squibb Company, priority 2022, published 2025).

The IC50 is the midpoint of a concentration-inhibition curve.

Type in all cases: cell-based
The target in one test is T1, human TLR9 (Homo sapiens, UniProt Q9NR96).
T1 construct: host or cells: HEK-Blue cells
T1 sequence (Q9NR96 26-1032): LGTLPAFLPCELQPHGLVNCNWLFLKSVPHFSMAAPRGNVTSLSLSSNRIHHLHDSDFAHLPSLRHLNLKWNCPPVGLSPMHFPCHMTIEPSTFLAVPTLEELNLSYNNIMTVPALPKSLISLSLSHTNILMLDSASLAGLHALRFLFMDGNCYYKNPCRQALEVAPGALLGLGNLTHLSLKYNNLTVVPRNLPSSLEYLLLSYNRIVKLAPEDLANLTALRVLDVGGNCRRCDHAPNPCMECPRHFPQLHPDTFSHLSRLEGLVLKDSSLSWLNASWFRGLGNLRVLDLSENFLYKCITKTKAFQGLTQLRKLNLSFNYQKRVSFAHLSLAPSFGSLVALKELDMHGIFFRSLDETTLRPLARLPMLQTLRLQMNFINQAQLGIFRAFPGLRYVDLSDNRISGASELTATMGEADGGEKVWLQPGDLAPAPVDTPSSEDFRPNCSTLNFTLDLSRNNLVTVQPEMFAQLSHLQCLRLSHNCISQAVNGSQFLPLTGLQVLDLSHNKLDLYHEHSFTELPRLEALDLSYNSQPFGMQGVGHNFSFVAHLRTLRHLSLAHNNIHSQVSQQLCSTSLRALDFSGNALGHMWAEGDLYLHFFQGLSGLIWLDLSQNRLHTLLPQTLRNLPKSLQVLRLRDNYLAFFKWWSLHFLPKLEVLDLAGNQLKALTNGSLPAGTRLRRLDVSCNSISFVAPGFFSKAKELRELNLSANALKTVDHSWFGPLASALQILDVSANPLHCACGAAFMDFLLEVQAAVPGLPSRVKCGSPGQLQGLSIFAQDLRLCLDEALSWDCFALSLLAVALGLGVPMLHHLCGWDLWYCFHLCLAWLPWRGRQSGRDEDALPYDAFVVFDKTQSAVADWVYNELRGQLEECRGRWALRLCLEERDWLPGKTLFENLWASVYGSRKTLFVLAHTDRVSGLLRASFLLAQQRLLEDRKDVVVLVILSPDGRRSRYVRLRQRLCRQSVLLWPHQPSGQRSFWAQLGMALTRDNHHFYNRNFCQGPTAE
Nature of the test: TLR9 inhibition reporter assay (HEK-Blue, SEAP). As to conditions: HEK-Blue cells overexpressing human TLR9, ligand ODN2006 200 nM, 22 hour incubation. How it is done: (§1) TLR7/8/9 Inhibition Reporter Assays
(§2) HEK-Blue™-cells (Invivogen) overexpressing human TLR7. TLR8 or TLR9 receptors were used for screening inhibitors of these receptors using an inducible SEAP (secreted embryonic alkaline phosphatase) reporter gene under the control of the IFN-β minimal promoter fused to five NF-κB and AP-1-binding sites. Cells are seeded into Greiner 384 well plates (15000 cells per well) that are pre dispensed (by ECHO) with testing compounds in DMSO to yield a final dose response concentration range of 0.85 nM-50 μM. After a 60 minute compound pre-treatment in 37 degree incubator, the cells are then stimulated with a TLR7 ligand (gardiquimod at a final concentration of 2.5 μM), TLR8 ligand (R848 at a final concentration of 14.25 μM) or TLR9 ligand (ODN2006 at a final concentration of 200 nM) to activate NF-κB and AP-1 which induce the production of SEAP. After a 22 hour incubation at 37° C., 5% CO2, SEAP levels are determined with the addition of HEK-Blue™ Detection reagent (Invivogen), a cell culture medium that allows for detection of SEAP, according to manufacturer's specifications. The percent inhibition is determined as the % reduction in the HEK-Blue signal present in […].

A further test deals with T2, human TLR7 (Homo sapiens, UniProt Q9NYK1).
T2 construct: host or cells: HEK-Blue cells
T2 sequence (Q9NYK1 27-1049): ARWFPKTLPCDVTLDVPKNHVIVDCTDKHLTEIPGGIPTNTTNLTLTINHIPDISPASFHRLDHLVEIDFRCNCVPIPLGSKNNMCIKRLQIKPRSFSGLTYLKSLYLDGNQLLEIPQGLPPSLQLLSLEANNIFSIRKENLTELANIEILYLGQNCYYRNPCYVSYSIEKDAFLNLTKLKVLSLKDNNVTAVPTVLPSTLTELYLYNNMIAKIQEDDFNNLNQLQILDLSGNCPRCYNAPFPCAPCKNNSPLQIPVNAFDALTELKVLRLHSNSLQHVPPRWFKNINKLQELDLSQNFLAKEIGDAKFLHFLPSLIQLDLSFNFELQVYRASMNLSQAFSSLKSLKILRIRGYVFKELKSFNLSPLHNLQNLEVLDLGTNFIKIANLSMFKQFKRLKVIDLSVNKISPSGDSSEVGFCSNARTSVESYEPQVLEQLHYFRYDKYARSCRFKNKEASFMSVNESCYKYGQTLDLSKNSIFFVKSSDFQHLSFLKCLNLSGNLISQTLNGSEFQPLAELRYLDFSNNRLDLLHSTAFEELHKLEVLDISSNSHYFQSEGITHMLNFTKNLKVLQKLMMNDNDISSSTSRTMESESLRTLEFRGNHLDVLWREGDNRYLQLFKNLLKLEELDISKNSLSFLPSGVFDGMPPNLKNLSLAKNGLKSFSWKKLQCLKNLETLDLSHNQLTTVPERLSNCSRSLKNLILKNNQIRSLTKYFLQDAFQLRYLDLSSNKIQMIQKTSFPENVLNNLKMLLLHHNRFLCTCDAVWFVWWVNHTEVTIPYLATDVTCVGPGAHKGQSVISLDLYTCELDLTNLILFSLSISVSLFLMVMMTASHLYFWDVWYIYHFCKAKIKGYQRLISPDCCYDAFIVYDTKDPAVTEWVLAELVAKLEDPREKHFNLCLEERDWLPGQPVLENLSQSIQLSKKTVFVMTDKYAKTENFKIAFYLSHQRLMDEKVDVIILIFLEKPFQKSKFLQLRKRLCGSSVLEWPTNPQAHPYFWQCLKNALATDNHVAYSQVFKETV
The test can be described thus: TLR7 inhibition reporter assay (HEK-Blue, SEAP). As to conditions: HEK-Blue cells overexpressing human TLR7, ligand gardiquimod 2.5 μM, 22 hour incubation. As to the method: as §1, §2

The target in the next test is T3, human TLR8 (Homo sapiens, UniProt Q9NR97).
T3 construct: host or cells: HEK-Blue cells
T3 sequence (Q9NR97 27-1041): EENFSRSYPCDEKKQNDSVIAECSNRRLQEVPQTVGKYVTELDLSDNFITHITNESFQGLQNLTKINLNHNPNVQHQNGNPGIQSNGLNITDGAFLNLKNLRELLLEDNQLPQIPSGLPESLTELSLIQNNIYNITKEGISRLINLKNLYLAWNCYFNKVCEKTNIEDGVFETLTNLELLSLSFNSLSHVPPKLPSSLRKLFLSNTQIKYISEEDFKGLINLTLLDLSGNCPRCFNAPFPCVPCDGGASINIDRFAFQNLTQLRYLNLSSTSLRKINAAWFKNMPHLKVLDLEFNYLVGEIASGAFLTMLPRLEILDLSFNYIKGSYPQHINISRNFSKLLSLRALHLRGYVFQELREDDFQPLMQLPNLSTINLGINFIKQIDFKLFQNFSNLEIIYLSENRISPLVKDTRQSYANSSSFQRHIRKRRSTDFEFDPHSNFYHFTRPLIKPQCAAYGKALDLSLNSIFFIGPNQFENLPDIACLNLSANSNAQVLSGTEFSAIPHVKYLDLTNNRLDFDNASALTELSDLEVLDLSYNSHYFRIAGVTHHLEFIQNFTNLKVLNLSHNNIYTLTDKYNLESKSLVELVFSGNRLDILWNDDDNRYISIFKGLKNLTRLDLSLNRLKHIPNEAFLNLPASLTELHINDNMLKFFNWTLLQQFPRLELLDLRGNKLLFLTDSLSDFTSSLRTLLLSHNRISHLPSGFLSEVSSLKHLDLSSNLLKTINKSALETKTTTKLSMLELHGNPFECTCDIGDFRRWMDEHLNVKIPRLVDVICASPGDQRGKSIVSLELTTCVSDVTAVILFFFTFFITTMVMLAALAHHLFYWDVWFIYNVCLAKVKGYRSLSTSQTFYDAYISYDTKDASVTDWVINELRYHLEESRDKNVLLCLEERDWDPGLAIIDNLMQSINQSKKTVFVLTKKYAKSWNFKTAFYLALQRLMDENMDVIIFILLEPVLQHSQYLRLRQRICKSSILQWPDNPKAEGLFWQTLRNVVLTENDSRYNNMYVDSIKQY
Nature of the test: TLR8 inhibition reporter assay (HEK-Blue, SEAP). As to conditions: HEK-Blue cells overexpressing human TLR8, ligand R848 14.25 μM, 22 hour incubation. How it is done: as §1, §2
In general terms: In a reporter assay the amount or activity of a reporter protein is the signal.

A value given as a limit tells only on which side of the number the result lay.

As for `Cc1cc(-c2ccc(N3CCN(C(C)C)CC3)cc2)nc2c1nc(-c1ccc(S(C)(=O)=O)cc1)n2C` [Example 7, 5-(4-(4-isopropylpiperazin-1-yl)phenyl)-3,7-dimethyl-2-(4-(methylsulfonyl)phenyl)-3H-imidazo[4,5-b]pyridine], the figures for the IC50 against human TLR9, at human TLR7 and against human TLR8 were 1.2 µM, 29 µM and above 50 µM, respectively.
In the case of `Cc1cc(-c2ccc(N3CCN(CC(C)C)CC3)cc2)nc2c1nc(-c1ccc(S(C)(=O)=O)cc1)n2C` [Example 8, 5-(4-(4-isobutylpiperazin-1-yl)phenyl)-3,7-dimethyl-2-(4-(methylsulfonyl)phenyl)-3H-imidazo[4,5-b]pyridine], the figures for the IC50 at human TLR9, on human TLR7 and against human TLR8 were 1.7 µM, above 50 µM and above 50 µM, respectively.
Turning to `Cc1cc(-c2ccc(C3CCN(C)CC3)cc2)nc2c1nc(-c1ccc(S(C)(=O)=O)cc1)n2C1CC1` [Example 9, 3-cyclopropyl-7-methyl-5-(4-(1-methylpiperidin-4-yl)phenyl)-2-(4-(methylsulfonyl)phenyl)-3H-imidazo[4,5-b]pyridine], the IC50 against human TLR9 is 1.7 µM; against human TLR7, 13 µM; on human TLR8 it was above 50 µM.
In the case of `COc1ccc(-c2nc3c(C)cc(-c4ccc(N5CCN(C(C)C)CC5)cc4)nc3n2C)cc1OC` [Example 10, 2-(3,4-dimethoxyphenyl)-5-(4-(4-isopropylpiperazin-1-yl)phenyl)-3,7-dimethyl-3H-imidazo[4,5-b]pyridine], the half-inhibitory concentration (IC50) worked out at 0.75 µM against human TLR9, 1.9 µM against human TLR7 and 17 µM against human TLR8.
As to `COc1ccc(-c2nc3ncc(C4CCN(C5CCN(C6CC6)CC5)CC4)cc3[nH]2)cc1OC` [Example 13, 6-(1′-cyclopropyl-[1,4′-bipiperidin]-4-yl)-2-(3,4-dimethoxyphenyl)-1H-imidazo[4,5-b]pyridine], the IC50 on human TLR9 was 1.2 µM; against human TLR7 it was above 25 µM; against human TLR8 it was above 25 µM.
`CC(C)N1CCC(N2CCC(c3cnc4nc(-c5ccc(S(C)(=O)=O)cc5)n(C)c4c3)CC2)CC1` [Example 14, 6-(1′-isopropyl-[1,4′-bipiperidin]-4-yl)-1-methyl-2-(4-(methylsulfonyl)phenyl)-1H-imidazo[4,5-b]pyridine]: the results for the IC50 against human TLR9, against human TLR7 and against human TLR8 were 3.1 µM, above 50 µM and above 50 µM, respectively.
As for `CC(C)CN1CCC(N2CCC(c3cnc4nc(-c5ccc(S(C)(=O)=O)cc5)n(C)c4c3)CC2)CC1` [Example 15, 6-(1′-isobutyl-[1,4′-bipiperidin]-4-yl)-1-methyl-2-(4-(methylsulfonyl)phenyl)-1H-imidazo[4,5-b]pyridine], the IC50 against human TLR9 was 0.16 µM; against human TLR7 it was 6.4 µM; at human TLR8, above 25 µM.
Regarding `Cn1c(-c2ccc(S(C)(=O)=O)cc2)nc2ncc(C3CCN(C4CCN(C5CC5)CC4)CC3)cc21` [Example 16, 6-(1′-cyclopropyl-[1,4′-bipiperidin]-4-yl)-1-methyl-2-(4-(methylsulfonyl)phenyl)-1H-imidazo[4,5-b]pyridine], the IC50 is 1.4 µM against human TLR9, above 25 µM on human TLR7 and above 25 µM against human TLR8.
As to `CC(C)N1CCC(N2CCC(c3ccc4nc(-c5ccc(S(C)(=O)=O)cc5)n(C)c4n3)CC2)CC1` [Example 17, 5-(1′-isopropyl-[1,4′-bipiperidin]-4-yl)-3-methyl-2-(4-(methylsulfonyl)phenyl)-3H-imidazo[4,5-b]pyridine], the figures for the IC50 against human TLR9, on human TLR7 and against human TLR8 were 0.071 µM, 18 µM and above 50 µM, respectively.
On the same counts, the results for `CC(C)CN1CCC(N2CCC(c3ccc4nc(-c5ccc(S(C)(=O)=O)cc5)n(C)c4n3)CC2)CC1` [Example 18, 5-(1′-isobutyl-[1,4′-bipiperidin]-4-yl)-3-methyl-2-(4-(methylsulfonyl)phenyl)-3H-imidazo[4,5-b]pyridine] are 0.78 µM, 2.8 µM and above 25 µM.
Turning to `Cn1c(-c2ccc(S(C)(=O)=O)cc2)nc2ccc(C3CCN(C4CCN(C5CC5)CC4)CC3)nc21` [Example 19, 5-(1′-cyclopropyl-[1,4′-bipiperidin]-4-yl)-3-methyl-2-(4-(methylsulfonyl)phenyl)-3H-imidazo[4,5-b]pyridine], the IC50 against human TLR9 is 0.87 µM; against human TLR7 it was 18 µM; on human TLR8, above 25 µM.
